According to patent publication US11578055B2, “Triazacyclododecansulfonamide (“TCD”)-based protein secretion inhibitors” (KEZAR LIFE SCIENCES, priority 2018, dated 2023):

Assays:
[1] = In Vitro Microsome Stability Assay (rat); type: in vitro ADME; conditions: rat, 30 min, NADPH
Protocol: (§1) Potassium phosphate (423 μL of a 0.1 M solution) was added to 8-strip deep well tubes followed by human, mouse, rat, or monkey microsomes (25 μL of a 20 mg/mL solution). The tubes were then placed on ice and the test article (2 μL of a 0.25 mM solution in DMSO) was added. The mixture was preincubated at 37° C. for 3 to 5 minutes (shaking at 150 rpm) then the reaction was initiated by adding 50 μL NADPH. An aliquot of samples (100 μL) were collected at 0 and 30 min and 200 μL of an acetonitrile mixture containing IS (compound 914) was added to quench the reaction. After centrifuging for 10 min at 4000 rpm, a mixed solution of the 20 μL of the supernatant (20 μL) plus 100 μL ACN/H2O (1:1) were injected for LC-MS/MS analysis. Liver microsome stability is assessed by the % remaining of compound at 30 min which is calculated using the following equation: [(AUCanalyteT=30/AUCIS)/(AUCanalyteT=0/AUCIS)]*100
(§2) For chemical structures that include one or more stereoisomers, but are illustrated without indicating stereochemistry, the assay data refers to a mixture of stereoisomers.

[2] = In Vitro Microsome Stability Assay (mouse); type: in vitro ADME; conditions: mouse, 30 min, NADPH
Protocol: as §1, §2

[3] = system: multiple myeloma cell line NCl-H929; test: H929 Cell Viability Assay; type: cell-based, human; conditions: Homo sapiens, NCI-H929, 48 h, H929, read-out: 48 hr H929 Viability Celltiter-Glo: Mean EC50
Protocol: The human multiple myeloma cell line NCl-H929 was cultured in Advanced RPMI 1640 media (Gibco®) supplemented with 6% fetal bovine serum, 2 mM Glutamine, and 1× Penicillin/Streptomycin. On the day of assay, cells were resuspended in RPMI 1640 media supplemented with 10% fetal bovine serum, 2 mM Glutamine, and 1× Penicillin/Streptmycin and plated in 384-well tissue culture plates and treated with compound dilutions in DMSO/media. Plates were incubated at 37° C., 5% CO2 for 48 hours. After 48 hours, Celltiter-Glo® (Promega) was added to each well and luciferase signal was quantified using Tecan Infinite M1000 Pro for cell viability determination.
as §2

[4] = system: multiple myeloma cell line U266B1; test: U266 Cell Viability Assay; type: cell-based, human; conditions: Homo sapiens, U-266; 48 hr, U266; read-out: 48 hr U266 Viability Celltiter-Glo: Mean EC50
Protocol: The human multiple myeloma cell line U266B1 was cultured in RPMI 1640 media supplemented with 10% fetal bovine serum, 2 mM Glutamine, and 1× Penicillin/Streptomycin. Cells were plated in 384-well tissue culture plates and treated with compound dilutions in DMSO/media. Plates were incubated at 37° C., 5% CO2 for 48 hours. After 48 hours, Celltiter-Glo® (Promega) was added to each well and luciferase signal was quantified using Tecan Infinite M1000 Pro for cell viability determination.
For chemical structures that include one or more stereoisomers, but are illustrated without indicating stereochemistry, the assay data refers to a mixture of stereoisomers

[5] = system: full length TNFα (amino acids 1-233) fused to Gaussia Luciferase; test: Dox Induced TNFα-FL-Gluc Assay; type: cell-based; conditions: 24 hr, 293FRT/TO; read-out: 24 hr Dox Inducible TNFaFLGluc 293FRT/TO: Mean IC50
Description: (§3) FIp-In 293 T-REx™ cells were transfected with pcDNA™5/FRT/TO plasmid inserted with cDNA encoding Gaussia Luciferase fused to the 3′ end of cDNA encoding full length TNFα (amino acids 1-233). Transfected cells were selected for resistance to the selectable markers Hygromycin and Blasticidin to create a stable cell line that contained the TNFα-FL/Gaussia Luciferase cDNA insert whose expression was regulated under the T-REx™ system. The day before assay, cells were trypsinized and plated in 384-well tissue culture plates. The next day, compound dilutions in DMSO/media containing doxycycline were added to the wells and incubated at 37° C., 5% CO2.
as §2

[6] = In Vitro Microsome Stability Assay (human); type: in vitro ADME; conditions: human, 30 min, NADPH
Protocol: as §1, §2

[7] = In Vitro Microsome Stability Assay (monkey); type: in vitro ADME; conditions: monkey, 30 min, NADPH
Protocol: as §1, §2

[8] = system: PD1 signal sequence plus 10 amino acids fused to Gaussia Luciferase (PD1-ss+10aa/Gaussia Luciferase); test: Dox Induced PD1-ss-Gluc Assay; type: cell-based; conditions: 24 hr, 293FRT/TO; read-out: 24 hr Dox Inducible PD1ssGluc 293FRT/TO: Mean IC50
Description: as §3, with “PD1 signal sequence plus 10 amino” for “full length TNFα (amino”, “(N-[…]-C) (SEQ ID NO: 1).” for “1-233).”, “PD1-ss+10aa/Gaussia” for “TNFα-FL/Gaussia”
as §2

SMILES | Liver Microsome Stability-% Left after 30 min w/ NADPH (%) Rat [1] | Liver Microsome Stability-% Left after 30 min w/ NADPH (%) Mouse [2] | EC50 [3] | EC50 [4] | IC50 [5] | Liver Microsome Stability-% Left after 30 min w/ NADPH (%) Human [6] | Liver Microsome Stability-% Left after 30 min w/ NADPH (%) Monkey [7] | IC50 [8]
O=C(c1ccc(Cl)cc1)N1CCCN(S(=O)(=O)N2CCCCC2)CC2(CC2)CN(S(=O)(=O)N2CCCCC2)CCC1 [A24, (5,13-bis(piperidin-1-ylsulfonyl)-5,9,13-triazaspiro[2.11]tetradecan-9-yl)(4-chlorophenyl)methanone] | 0.04% | 0.13% | > 25 µM | > 25 µM | > 25 µM | 0.03% | 0.03% | > 25 µM
CN(C)c1ccc(S(=O)(=O)N2CCCN(CC3CCCCC3)CCCN(S(=O)(=O)N3CCCCCC3)CC3(CC3)C2)cc1 [A25, 4-{[13-(azepane-1-sulfonyl)-9-(cyclohexylmethyl)-5,9,13-triazaspiro[2.11]tetradecan-5-yl]sulfonyl}-N,N-dimethylaniline] | 4.16% | 0.32% | > 25 µM | > 25 µM | > 25 µM | 0.12% | 0.2% | 0.435 µM
CN(C)c1ccc(S(=O)(=O)N2CCCN(CC3CCCCC3)CCCN(S(=O)(=O)N3CCC(C)(C)CC3)CC3(CC3)C2)cc1 [A26, 4-{[9-(cyclohexylmethyl)-13-[(4,4-dimethylpiperidin-1-yl)sulfonyl]-5,9,13-thazaspiro[2.11]tetradecan-5-yl]sulfonyl}-N,N-dimethylaniline] | 1.84% | 3.4% | 16.1 µM | > 25 µM | > 25 µM | 6.65% | 0.13% | 0.224 µM
COC1CCN(S(=O)(=O)N2CCCN(CC3CCCCC3)CCCN(S(=O)(=O)c3ccc(N(C)C)cc3)CC3(CC3)C2)CC1 [A27, 4-{[9-(cyclohexylmethyl)-13-[(4-methoxypiperidin-1-yl)sulfonyl]-5,9,13-triazaspiro[2.11]tetradecan-5-yl]sulfonyl}-N,N-dimethylaniline] | 0.98% | 2.15% | > 25 µM | > 25 µM | > 25 µM | 2.52% | 2.07% | 0.493 µM
Cc1cc(N(C)C)ccc1S(=O)(=O)N1CCCN(CC2CCCCC2)CCCN(S(=O)(=O)N2CCCCC2)CC2(CC2)C1 [A30, 4-{[9-(cyclohexylmethyl)-13-(piperidine-1-sulfonyl)-5,9,13-triazaspiro[2.11]tetradecan-5-yl]sulfonyl}-N,N,3-trimethylaniline] | 0.28% | 0.35% | > 25 µM | > 25 µM | > 25 µM | 0.12% | 0.03% | 0.793 µM
COc1ccc(S(=O)(=O)N2CCCN(CC3CCCCC3)CCCN(S(=O)(=O)N3CCCCC3)CC3(CC3)C2)cc1 [A31, 9-(cyclohexylmethyl)-5-(4-methoxybenzenesulfonyl)-13-(piperidine-1-sulfonyl)-5,9,13-triazaspiro[2.11]tetradecane] | 0.09% | 0.25% | > 25 µM | > 25 µM | > 25 µM | 0.05% | 0.03% | 0.619 µM
COc1cccc(S(=O)(=O)N2CCCN(CC3CCCCC3)CCCN(S(=O)(=O)N3CCCCC3)CC3(CC3)C2)c1 [A32, 9-(cyclohexylmethyl)-5-(3-methoxybenzenesulfonyl)-13-(piperidine-1-sulfonyl)-5,9,13-triazaspiro[2.11]tetradecane] | 0.27% | 0.51% | > 25 µM | > 25 µM | > 25 µM | 0.06% | 0.09% | > 25 µM
COc1ccccc1S(=O)(=O)N1CCCN(CC2CCCCC2)CCCN(S(=O)(=O)N2CCCCC2)CC2(CC2)C1 [A33, 9-(cyclohexylmethyl)-5-(2-methoxybenzenesulfonyl)-13-(piperidine-1-sulfonyl)-5,9,13-triazaspiro[2.11]tetradecane] | 0.13% | 0.08% | > 25 µM | > 25 µM | > 25 µM | 0.05% | 0.07% | > 25 µM
O=S(=O)(c1ccccc1)N1CCCN(CC2CCCCC2)CCCN(S(=O)(=O)N2CCCCC2)CC2(CC2)C1 [A34, 5-(benzenesulfonyl)-9-(cyclohexylmethyl)-13-(piperidine-1-sulfonyl)-5,9,13-triazaspiro[2.11]tetradecane] | 0.12% | 0.24% | > 25 µM | > 25 µM | > 25 µM | 0.03% | 0.09% | > 25 µM
C=C1CN(S(=O)(=O)c2ccc(N(C)C)cc2)CCCN(CC2CCCCC2)CCCN(S(=O)(=O)N2CCC(Oc3ccccc3)CC2)C1 [A37, 4-{[9-(cyclohexylmethyl)-3-methylidene-5-[(4-phenoxypiperidin-1-yl)sulfonyl]-1,5,9-triazacyclododecan-1-yl]sulfonyl}-N,N-dimethylaniline] | 13.5% | 6.03% | > 25 µM | > 25 µM | > 25 µM | 8.26% | 5.69% | 0.202 µM
C=C1CN(S(=O)(=O)c2ccc(N(C)C)cc2)CCCN(CC2CCCCC2)CCCN(S(=O)(=O)N2CCCC(c3ccccc3)C2)C1 (stereo not shown) [A38, 4-{[9-(cyclohexylmethyl)-3-methylidene-5-[(3-phenylpiperidin-1-yl)sulfonyl]-1,5,9-triazacyclododecan-1-yl]sulfonyl}-N,N-dimethylaniline] | 24.2% | 12.6% | > 11.8 µM | > 25 µM | 5.49 µM | 11.4% | 9.04% | 0.0751 µM
